Here are results for 14 molecules from patent US20190151403A1, “NOVEL CYCLOSPORIN DERIVATIVES AND USES THEREOF” (S&T Global Inc., priority 2016, published 2019).

Where two headings read alike, the source gives them in different places. Starred links: 1 amine or outer side, 2 acyl side, 3 side chain; linkers in the order of their positions; H or OH if unused. Non-standard residues stand in square brackets, D forms with d. Residues, ends and D or L forms follow the SMILES beside them. ξ: configuration not given here. *: point of attachment. NMeThr(4R-Me,4-(CH2)6NHAc) = CN[C@H](C(=O)O)[C@H](O)[C@H](C)CCCCCCNC(C)=O; MeBmt = C/C=C/C[C@@H](C)[C@@H](O)[C@H](NC)C(=O)O; X1 = CCN(CC)CCS[C@H](C(=O)[*:2])N(C)[*:1]; NMeIle(3ξ) = CCC(C)[C@H](NC)C(=O)O; NMeL = CN[C@@H](CC(C)C)C(=O)O; NMeV = CN[C@H](C(=O)O)C(C)C; dNMeC = CN[C@H](CS)C(=O)O; dNMeS = CN[C@H](CO)C(=O)O; dNMeA = CN[C@H](C)C(=O)O; Abu = CC[C@H](N)C(=O)O; Butyl(4-OH) = OCCCC*

For assay [1], the system named is HCV replicon in cell line ET (luc-ubi-neo/ET), Huh7 human hepatoma cell line. The assay is described as follows: HCV subgenomic replicon assay (luciferase end point). In kind it is cell-based. As to the method:
Anti-HCV activity of cyclosporine derivatives were evaluated in the HCV subgenomic replicon assay. The assay use the cell line ET (luc-ubi-neo/ET), which is a Huh7 human hepatoma cell line harboring an HCV replicon with a stable luciferase (Luc) reporter. HCV RNA replication was assessed by quantifying HCV replicon-derived luciferase activity. The antiviral activity of cyclosporine analogs were evaluated after drug treatment to derive EC50 and EC90 values by using the luciferase end point (Krieger, N., et al., 2001, J. Viral. 75, 4614-4624; Pietschmann, T., et al., 2002, J. Viral. 76, 4008-4021; each of which is incorporated herein by reference). Cytotoxicity was assessed in parallel.
A general note: In antiviral work, replicon cells carry a viral genome segment that copies itself.

Assay [2] has as its target T1, Human recombinant CypA (Homo sapiens, UniProt P62937).
T1 construct: purchased Atgen
The assay is described as follows: Cyclophilin A PPIase inhibition, α-chymotrypsin-coupled assay. It is filed as biochemical. Conditions: 10 nM human recombinant CypA, 5° C, succinyl-AAPF-pNA substrate. On the procedure: Inhibition of CyPA isomerase activity was assessed using the α-chymotrypsin-coupled assay adapted to a 96-well plate format. Human recombinant CypA (Atgen) was dissolved to 10 nM in isomerase buffer (50 mM Hepes, 100 mM NaCl, 1 mg/ml bovine serum albumin, 1 mg/ml a-chymotrypsin; pH 8). Succinyl-AAPF-pNA peptide substrate (Sigma) was dissolved to 3.2 mM in dried LiCl/trifluoroethanol. […] All solutions were equilibrated, and reactions conducted at 5° C. Reactions were initiated by mixing 95 μL reaction mix with 5 μL peptide preloaded in multiple wells of 96-well plates and measuring OD405 nm in each well at 6-sec intervals for 6 min using a BMG Polarstar Galaxy plate reader. Data were fitted with Graphpad Prism 6.0 to obtain first-order rate constants. Enzyme catalyzed rate constants were calculated by subtracting the rate constant from uncatalyzed reactions (no CypA), and the catalytic rate constants plotted as a function of inhibitor concentration to obtain IC50s (see […] et al., 2015, PLOS ONE).

Assay [3] has as its target Cyclophilin D (CyPD) (Homo sapiens, UniProt P30405). The assay is described as follows: Cyclophilin D PPIase inhibition assay. In kind it is biochemical.
Assay [4] has as its system HCV. Particulars: reported by Hopkins et al. 2010; read-out: in vitro anti-HCV activity (EC50); cited from earlier work.
The test system of assay [5] is multi-genotype HCV GT1a to 4a. Conditions: cited from earlier work.
Assay [6] deals with cyclophilin A (Homo sapiens, UniProt P62937). Conditions: published, Gallay et al. 2016; read-out: cyclophilin binding EC50 for cyclophilin A; cited from earlier work.
[7] abbreviates: Hepatitis C virus, Huh-7, read-out: Antiviral activity.
The mark [8] stands for this setting: HCV subgenomic replicon, Huh7 ET cells, luciferase end point, read-out: Antiviral activity.

Cyclophilin D (CyPD), sequence (P30405 30-207, species assumed): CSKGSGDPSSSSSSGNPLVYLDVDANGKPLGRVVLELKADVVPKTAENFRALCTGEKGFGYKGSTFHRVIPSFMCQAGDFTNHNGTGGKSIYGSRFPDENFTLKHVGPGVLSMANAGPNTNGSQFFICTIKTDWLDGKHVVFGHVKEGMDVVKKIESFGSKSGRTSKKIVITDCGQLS
T1 sequence (P62937 whole entry): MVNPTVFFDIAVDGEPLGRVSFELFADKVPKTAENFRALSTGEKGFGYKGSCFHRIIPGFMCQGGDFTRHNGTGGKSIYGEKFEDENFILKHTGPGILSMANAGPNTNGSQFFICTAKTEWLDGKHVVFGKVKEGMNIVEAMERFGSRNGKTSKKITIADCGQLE
cyclophilin A, sequence (P62937 whole entry): as above

With `C/C=C/C[C@@H](C)[C@@H](O)[C@H]1C(=O)N[C@@H](CC)C(=O)N(C)[C@H](C)C(=O)N(CC)[C@@H](C(C)C)C(=O)N[C@@H](C(C)C)C(=O)N(C)[C@@H](CC(C)C)C(=O)N[C@@H](C)C(=O)N[C@H](C)C(=O)N(C)[C@@H](CC(C)C)C(=O)N(C)[C@@H](CC(C)C)C(=O)N(C)[C@@H](C(C)C)C(=O)N1C` [Alisporivir], the IC50 in assay [1] (setting [7]) was less than 35 nM; in assay [2] it was less than 4 nM. The EC50 (as a rule, the concentration that produces a half-maximal response) in assay [3] is less than 4 nM. For `CC[C@@H]1NC(=O)[C@H]([C@H](O)[C@H](C)CCCCCCNC(C)=O)N(C)C(=O)[C@H](C(C)C)N(C)C(=O)[C@H](CC(C)C)N(C)C(=O)[C@H](CC(C)C)N(C)C(=O)[C@@H](C)NC(=O)[C@H](C)NC(=O)[C@H](CC(C)C)N(C)C(=O)[C@H](C(C)C)NC(=O)[C@H](CC(C)(C)O)N(C)C(=O)CN(C)C1=O` [[8-(2-Acetamidoethyl)-6,7-dihydro-MeBmt]-1-[(γ-hydroxy)-N-MeLeu]-4-cyclosporin], the IC50 in assay [1] (setting [7]) is less than 35 nM. Take `C/C=C/C[C@@H](C)[C@@H](O)[C@H]1C(=O)N[C@@H](CC)C(=O)N(C)[C@H](SCCN(C)C)C(=O)N(C)[C@@H](CC(C)(C)O)C(=O)N[C@@H](C(C)C)C(=O)N(C)[C@@H](CC(C)C)C(=O)N[C@@H](C)C(=O)N[C@H](C)C(=O)N(C)[C@@H](CC(C)C)C(=O)N(C)[C@@H](CC(C)C)C(=O)N(C)[C@@H](C(C)C)C(=O)N1C`: the IC50 in assay [1] (setting [7]) lay within 35 to 90 nM. In addition, the EC50 in assay [3] fell in the range of 4 to 10 nM. On to `CC[C@@H]1NC(=O)[C@H]([C@H](O)[C@H](C)CCCCCCNC(C)=O)N(C)C(=O)[C@H](C(C)C)N(C)C(=O)[C@H](CC(C)C)N(C)C(=O)[C@H](CC(C)C)N(C)C(=O)[C@@H](C)NC(=O)[C@H](C)NC(=O)[C@H](CC(C)C)N(C)C(=O)[C@H](C(C)C)NC(=O)[C@H](CC(C)C)N(C)C(=O)[C@@H](CSCCCCO)N(C)C1=O` [[8-(2-Acetamidoethyl)-6,7-dihydro-MeBmt]-1-[(S)-(4-hydroxybutylthio)methyl-Sar]-3-cyclosporin] (cyclo(A[dA][NMeL][NMeL][NMeV][NMeThr(4R-Me,4-(CH2)6NHAc)][Abu][dNMeC](Butyl(4-OH))[NMeL]V[NMeL])), for which the IC50 in assay [1] (setting [7]) was less than 35 nM; in assay [2] it was less than 4 nM. The molecule also showed a half-maximal effective concentration (EC50) in assay [3] of less than 4 nM.

Consider `C/C=C/C[C@@H](C)[C@@H](O)[C@H]1C(=O)N[C@@H](CC)C(=O)N(C)[C@H](CSCCCCO)C(=O)N(C)[C@@H](CC(C)(C)O)C(=O)N[C@@H](C(C)C)C(=O)N(C)[C@@H](CC(C)C)C(=O)N[C@@H](C)C(=O)N[C@H](C)C(=O)N(C)[C@@H](CC(C)C)C(=O)N(C)[C@@H](CC(C)C)C(=O)N(C)[C@@H](C(C)C)C(=O)N1C` [[(S)-(4-Hydroxylbutylthio)methyl-Sar]-3-[(γ-hydroxy)-N-MeLeu]-4-cyclosporin], for which the IC50 in assay [2] was less than 4 nM. Besides, the EC50 in assay [3] is less than 4 nM. For the molecule `C/C=C/C[C@@H](C)[C@@H](O)[C@H]1C(=O)N[C@@H](CC)C(=O)N(C)CC(=O)N(C)[C@@H](C(C)C)C(=O)N[C@@H](C(C)C)C(=O)N(C)[C@@H](CC(C)C)C(=O)N[C@@H](C)C(=O)N[C@H](C)C(=O)N(C)[C@@H](CC(C)C)C(=O)N(C)[C@@H](CC(C)C)C(=O)N(C)[C@@H](C(C)C)C(=O)N1C` [[N-MeVal]-4-cyclosporin (SDZ 220-384), N-MeVal-4-Cyclosporin], the IC50 in assay [1] (setting [8]) lay in the range of 90 to 250 nM. Consider `CC[C@@H]1NC(=O)[C@H]([C@H](O)[C@H](C)CCCCCCNC(C)=O)N(C)C(=O)[C@H](C(C)C)N(C)C(=O)[C@H](CC(C)C)N(C)C(=O)[C@H](CC(C)C)N(C)C(=O)[C@@H](C)NC(=O)[C@H](C)NC(=O)[C@H](CC(C)C)N(C)C(=O)[C@H](C(C)C)NC(=O)[C@H](CC(C)C)N(C)C(=O)CN(C)C1=O` [[8-(2-Acetamidoethyl)-6,7-dihydro-MeBmt]-1-cyclosporin], for which, in assay [1] (setting [7]), the IC50 is less than 35 nM.

Regarding `C/C=C/C[C@@H](C)[C@@H](O)[C@H]1C(=O)N[C@@H](CC)C(=O)N(C)[C@H](SCCN(C)C)C(=O)N(C)[C@@H](CC(C)(C)O)C(=O)N[C@@H](C(C)C)C(=O)N(C)[C@@H](CC(C)C)C(=O)N[C@@H](C)C(=O)N[C@H](C)C(=O)N(C)[C@@H](CC(C)C)C(=O)N(C)[C@@H](CC(C)C)C(=O)N(C)[C@@H](C(C)C)C(=O)N1C` [SCY-635], the EC50 in assay [4] is 100 nM. Regarding `CC[C@@H]1NC(=O)[C@H]([C@H](O)[C@H](C)CCCCCCNC(C)=O)N(C)C(=O)[C@H](C(C)C)N(C)C(=O)[C@H](CC(C)C)N(C)C(=O)[C@H](CC(C)C)N(C)C(=O)[C@@H](C)NC(=O)[C@H](C)NC(=O)[C@H](CC(C)C)N(C)C(=O)[C@H](C(C)C)NC(=O)[C@H](CC(C)C)N(C)C(=O)[C@@H](CO)N(C)C1=O` [[8-(2-Acetamidoethyl)-6,7-dihydro-MeBmt]-1-[(R)-hydroxymethyl-Sar]-3-cyclosporin] (cyclo(A[dA][NMeL][NMeL][NMeV][NMeThr(4R-Me,4-(CH2)6NHAc)][Abu][dNMeS][NMeL]V[NMeL])), the IC50 in assay [1] (setting [7]) is less than 35 nM.

As for `C/C=C/C[C@@H](C)[C@@H](O)[C@H]1C(=O)N[C@@H](CC)C(=O)N(C)CC(=O)N(C)[C@@H]([C@@H](C)CC)C(=O)N[C@@H](C(C)C)C(=O)N(C)[C@@H](CC(C)C)C(=O)N[C@@H](C)C(=O)N[C@H](C)C(=O)N(C)[C@@H](CC(C)C)C(=O)N(C)[C@@H](CC(C)C)C(=O)N(C)[C@@H](C(C)C)C(=O)N1C` [[N-MeIle]-4-cyclosporin (SDZ-NIM-811), N-MeIle-4-Cyclosporin], the IC50 in assay [1] (setting [7]) is 90 to 250 nM. For the molecule “[8-(2-Acetamidoethyl)-6,7-dihydro-MeBmt]-1-[(S)-(4-hydroxybutylthio)methyl-Sar]-3-[(γ-hydroxy)-N-MeLeu]-4-cyclosporin”, the IC50 in assay [1] (setting [8]) was less than 35 nM. On to `CC[C@@H]1NC(=O)[C@H]([C@H](O)[C@H](C)CCCCCCNC(C)=O)N(C)C(=O)[C@H](C(C)C)N(C)C(=O)[C@H](CC(C)C)N(C)C(=O)[C@H](CC(C)C)N(C)C(=O)[C@@H](C)NC(=O)[C@H](C)NC(=O)[C@H](CC(C)C)N(C)C(=O)[C@H](C(C)C)NC(=O)[C@H](CC(C)C)N(C)C(=O)[C@@H](C)N(C)C1=O` [[8-(2-Acetamidoethyl)-6,7-dihydro-MeBmt]-1-[(R)-Methyl]-3-cyclosporin] (cyclo(A[dA][NMeL][NMeL][NMeV][NMeThr(4R-Me,4-(CH2)6NHAc)][Abu][dNMeA][NMeL]V[NMeL])), for which the IC50 in assay [1] (setting [7]) is less than 35 nM.

For the molecule `C/C=C/C[C@@H](C)[C@@H](O)[C@H]1C(=O)N[C@@H](CC)C(=O)N(C)[C@H](SCCN(CC)CC)C(=O)N(C)[C@@H](C(C)CC)C(=O)N[C@@H](C(C)C)C(=O)N(C)[C@@H](CC(C)C)C(=O)N[C@@H](C)C(=O)N[C@H](C)C(=O)N(C)[C@@H](CC(C)C)C(=O)N(C)[C@@H](CC(C)C)C(=O)N(C)[C@@H](C(C)C)C(=O)N1C` (stereo partly drawn) [(R)-2-(N,N-Diethylamino)ethylthio-Sar]-3-[N-MeIle]-4-cyclosporin] (cyclo(A[dA][NMeL][NMeL][NMeV][MeBmt][Abu][X1][NMeIle(3ξ)]V[NMeL])), the IC50 in assay [1] (setting [8]) was less than 35 nM. On to `CC=CCC(C)C(O)C1C(=O)NC(CC)C(=O)N(C)C(CSCCCCO)C(=O)N(C)C(CC(C)(C)O)C(=O)NC(C(C)C)C(=O)N(C)C(CC(C)C)C(=O)NC(C)C(=O)NC(C)C(=O)N(C)C(CC(C)C)C(=O)N(C)C(CC(C)C)C(=O)N(C)C(C(C)C)C(=O)N1C` (centres unmarked) [STG-175], for which the “cross-resistance with direct anti-viral agents (DAAs)” value in assay [5] is “No cross-resistance is observed”. Besides, the “viral replication rebound after cessation of drug treatment” value in assay [5] (compared with Sofosbuvir) is “no viral replication rebound is observed”. For the same molecule, the EC50 was 11.5 to 38.9 nM in assay [5] (multi-genotype HCV GT1a to 4a, published, Gallay et al. 2016, read-out: anti-HCV activity EC50) and 0.6 nM in assay [6].
